For 31 compounds, AC50 results are on record in ChEMBL document CHEMBL5291721, “A preclinical secondary pharmacology resource illuminates target-adverse drug reaction associations of marketed drugs” (Nat Commun, 2023).

Assay [1] addresses T1, Muscarinic acetylcholine receptor M1 (Homo sapiens, UniProt P11229).
T1 sequence (P11229 whole entry): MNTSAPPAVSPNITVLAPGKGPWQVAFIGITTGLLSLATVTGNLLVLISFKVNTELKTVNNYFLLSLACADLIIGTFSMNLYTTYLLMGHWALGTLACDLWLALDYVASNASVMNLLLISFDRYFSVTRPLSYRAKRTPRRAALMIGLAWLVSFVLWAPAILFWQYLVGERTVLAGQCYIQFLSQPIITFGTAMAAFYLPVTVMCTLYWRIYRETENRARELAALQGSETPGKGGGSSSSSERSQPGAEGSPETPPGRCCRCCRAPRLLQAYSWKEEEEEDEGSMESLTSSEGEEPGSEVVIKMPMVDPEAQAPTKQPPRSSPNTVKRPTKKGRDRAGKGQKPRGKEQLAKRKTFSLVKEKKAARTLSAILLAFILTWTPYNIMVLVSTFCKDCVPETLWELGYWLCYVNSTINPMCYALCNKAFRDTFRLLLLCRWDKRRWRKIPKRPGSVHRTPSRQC
Format: functional, cell-based.

The target of another assay is Vasopressin V1a receptor (Homo sapiens, UniProt P37288).
Sequence of Vasopressin V1a receptor (P37288 whole entry): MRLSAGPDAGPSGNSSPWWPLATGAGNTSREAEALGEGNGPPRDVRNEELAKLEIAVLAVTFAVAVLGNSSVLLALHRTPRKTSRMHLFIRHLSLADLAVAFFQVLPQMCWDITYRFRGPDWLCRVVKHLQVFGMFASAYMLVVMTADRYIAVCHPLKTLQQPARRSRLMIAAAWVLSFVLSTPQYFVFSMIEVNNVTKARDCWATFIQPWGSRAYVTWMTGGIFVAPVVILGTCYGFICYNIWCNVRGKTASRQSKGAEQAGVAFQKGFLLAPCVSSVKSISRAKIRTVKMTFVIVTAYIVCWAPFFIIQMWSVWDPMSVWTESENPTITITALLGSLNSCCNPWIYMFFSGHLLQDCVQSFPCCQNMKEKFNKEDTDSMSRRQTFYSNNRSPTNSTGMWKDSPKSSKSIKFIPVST
A further assay has as its target Vasopressin V2 receptor (Homo sapiens, UniProt P30518).
For assay [2], the target named is T2, Muscarinic acetylcholine receptor M2 (Homo sapiens, UniProt P08172).
T2 sequence (P08172 whole entry): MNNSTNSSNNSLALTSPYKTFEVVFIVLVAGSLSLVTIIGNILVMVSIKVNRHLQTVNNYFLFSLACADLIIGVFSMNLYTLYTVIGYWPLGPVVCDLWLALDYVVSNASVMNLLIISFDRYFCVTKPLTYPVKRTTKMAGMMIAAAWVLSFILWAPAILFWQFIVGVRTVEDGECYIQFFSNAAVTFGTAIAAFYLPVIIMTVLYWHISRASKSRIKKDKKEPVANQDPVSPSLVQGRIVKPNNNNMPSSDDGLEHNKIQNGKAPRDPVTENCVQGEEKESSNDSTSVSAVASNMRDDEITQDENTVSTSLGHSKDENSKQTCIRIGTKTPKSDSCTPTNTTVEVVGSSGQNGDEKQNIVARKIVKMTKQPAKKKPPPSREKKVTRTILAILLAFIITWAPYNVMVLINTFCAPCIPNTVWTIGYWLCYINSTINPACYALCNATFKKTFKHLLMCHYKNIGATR
Format: functional, cell-based.

Assay [3] deals with T2, Muscarinic acetylcholine receptor M2. It counts as functional, cell-based. This is another data set of the same source.
For the next assay, the target named is Cannabinoid receptor 1 (Homo sapiens, UniProt P21554). Format: functional, cell-based.
Sequence of Cannabinoid receptor 1 (P21554 whole entry): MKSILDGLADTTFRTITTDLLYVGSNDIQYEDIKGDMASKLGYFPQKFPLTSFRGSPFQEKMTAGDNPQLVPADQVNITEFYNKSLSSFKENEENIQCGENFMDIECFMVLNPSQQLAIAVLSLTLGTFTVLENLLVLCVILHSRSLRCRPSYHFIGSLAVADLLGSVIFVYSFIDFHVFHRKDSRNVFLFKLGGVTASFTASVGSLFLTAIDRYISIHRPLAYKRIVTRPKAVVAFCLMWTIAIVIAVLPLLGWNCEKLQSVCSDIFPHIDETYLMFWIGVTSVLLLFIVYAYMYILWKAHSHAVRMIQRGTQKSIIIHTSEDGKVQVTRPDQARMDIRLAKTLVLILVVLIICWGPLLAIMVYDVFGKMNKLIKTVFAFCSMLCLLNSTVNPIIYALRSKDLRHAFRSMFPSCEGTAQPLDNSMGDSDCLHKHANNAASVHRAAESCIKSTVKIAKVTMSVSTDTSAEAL
Assay [4] addresses Gamma-aminobutyric acid receptor subunit alpha-1 (Rattus norvegicus, UniProt P62813).
For another assay, the target named is Histamine H2 receptor (Homo sapiens, UniProt P25021). Format: functional, cell-based.
Sequence of Histamine H2 receptor (P25021 whole entry): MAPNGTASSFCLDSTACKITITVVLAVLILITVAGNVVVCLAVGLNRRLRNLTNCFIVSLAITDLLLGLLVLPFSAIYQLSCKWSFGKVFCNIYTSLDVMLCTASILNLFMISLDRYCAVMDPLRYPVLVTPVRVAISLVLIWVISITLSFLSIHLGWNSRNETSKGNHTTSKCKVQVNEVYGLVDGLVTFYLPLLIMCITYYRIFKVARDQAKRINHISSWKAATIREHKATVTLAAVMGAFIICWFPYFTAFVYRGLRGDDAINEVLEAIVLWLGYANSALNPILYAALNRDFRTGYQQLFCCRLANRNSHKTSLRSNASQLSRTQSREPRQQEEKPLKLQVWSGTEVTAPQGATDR
For assay [5], the target named is 5-hydroxytryptamine receptor 2B (Homo sapiens, UniProt P41595). Format: functional, cell-based.
Sequence of 5-hydroxytryptamine receptor 2B (P41595 whole entry): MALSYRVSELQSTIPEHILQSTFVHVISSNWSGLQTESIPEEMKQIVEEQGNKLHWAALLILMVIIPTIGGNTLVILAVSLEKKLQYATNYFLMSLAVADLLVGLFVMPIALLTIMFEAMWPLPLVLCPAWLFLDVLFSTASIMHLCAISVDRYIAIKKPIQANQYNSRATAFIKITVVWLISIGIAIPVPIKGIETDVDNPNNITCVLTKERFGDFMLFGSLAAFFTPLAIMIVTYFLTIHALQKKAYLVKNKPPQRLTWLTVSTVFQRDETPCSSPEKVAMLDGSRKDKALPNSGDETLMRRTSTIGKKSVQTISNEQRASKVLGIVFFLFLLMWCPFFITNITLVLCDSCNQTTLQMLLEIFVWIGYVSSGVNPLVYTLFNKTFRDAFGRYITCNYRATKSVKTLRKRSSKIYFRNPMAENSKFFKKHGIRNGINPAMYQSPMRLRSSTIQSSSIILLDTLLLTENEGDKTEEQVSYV
Assay [6] has as its target 3',5'-cyclic-AMP phosphodiesterase 4D (Homo sapiens, UniProt Q08499). It counts as functional.
The target in the next assay is T3, Progesterone receptor (Homo sapiens, UniProt P06401).
T3 sequence (P06401 whole entry): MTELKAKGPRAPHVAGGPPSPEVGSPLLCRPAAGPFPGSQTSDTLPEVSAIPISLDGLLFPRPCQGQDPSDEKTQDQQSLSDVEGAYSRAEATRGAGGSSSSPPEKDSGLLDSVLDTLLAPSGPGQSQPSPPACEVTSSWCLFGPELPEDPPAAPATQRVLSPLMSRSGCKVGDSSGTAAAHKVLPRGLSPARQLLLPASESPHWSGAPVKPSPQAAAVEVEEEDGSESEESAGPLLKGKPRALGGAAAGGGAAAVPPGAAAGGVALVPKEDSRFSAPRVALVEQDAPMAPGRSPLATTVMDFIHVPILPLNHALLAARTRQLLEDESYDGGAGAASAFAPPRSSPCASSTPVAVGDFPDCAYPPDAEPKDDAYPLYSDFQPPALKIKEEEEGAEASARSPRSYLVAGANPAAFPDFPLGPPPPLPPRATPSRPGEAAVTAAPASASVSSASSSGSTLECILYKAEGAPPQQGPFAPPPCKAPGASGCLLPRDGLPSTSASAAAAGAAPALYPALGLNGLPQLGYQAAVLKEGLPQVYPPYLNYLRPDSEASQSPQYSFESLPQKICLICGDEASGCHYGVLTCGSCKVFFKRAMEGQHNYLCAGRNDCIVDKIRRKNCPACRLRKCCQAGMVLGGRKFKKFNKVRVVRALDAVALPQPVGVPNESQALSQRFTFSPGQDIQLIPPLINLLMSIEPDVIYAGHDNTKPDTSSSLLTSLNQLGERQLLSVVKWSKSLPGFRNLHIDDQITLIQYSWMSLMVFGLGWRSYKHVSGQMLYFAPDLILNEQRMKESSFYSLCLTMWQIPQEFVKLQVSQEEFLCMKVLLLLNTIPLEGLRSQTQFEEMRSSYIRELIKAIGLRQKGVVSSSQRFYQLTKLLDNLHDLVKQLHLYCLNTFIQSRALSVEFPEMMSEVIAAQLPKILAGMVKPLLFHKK
Format: functional.

The target in another assay is T4, Thromboxane A2 receptor (Homo sapiens, UniProt P21731).
T4 sequence (P21731 whole entry): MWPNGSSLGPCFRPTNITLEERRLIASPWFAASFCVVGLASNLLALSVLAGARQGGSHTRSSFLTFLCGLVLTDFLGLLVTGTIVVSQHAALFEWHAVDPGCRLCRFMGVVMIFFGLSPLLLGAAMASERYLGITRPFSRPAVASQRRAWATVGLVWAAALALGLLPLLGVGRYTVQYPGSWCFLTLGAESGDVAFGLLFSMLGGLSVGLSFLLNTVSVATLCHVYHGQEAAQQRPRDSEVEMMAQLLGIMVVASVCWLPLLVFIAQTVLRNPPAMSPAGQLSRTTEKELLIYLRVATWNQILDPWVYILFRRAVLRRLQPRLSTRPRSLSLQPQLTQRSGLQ

Assay [7] concerns the target Sodium-dependent serotonin transporter (Homo sapiens, UniProt P31645).
Further: assay procedure not described here.

Sequence of Gamma-aminobutyric acid receptor subunit alpha-1 (P62813 whole entry): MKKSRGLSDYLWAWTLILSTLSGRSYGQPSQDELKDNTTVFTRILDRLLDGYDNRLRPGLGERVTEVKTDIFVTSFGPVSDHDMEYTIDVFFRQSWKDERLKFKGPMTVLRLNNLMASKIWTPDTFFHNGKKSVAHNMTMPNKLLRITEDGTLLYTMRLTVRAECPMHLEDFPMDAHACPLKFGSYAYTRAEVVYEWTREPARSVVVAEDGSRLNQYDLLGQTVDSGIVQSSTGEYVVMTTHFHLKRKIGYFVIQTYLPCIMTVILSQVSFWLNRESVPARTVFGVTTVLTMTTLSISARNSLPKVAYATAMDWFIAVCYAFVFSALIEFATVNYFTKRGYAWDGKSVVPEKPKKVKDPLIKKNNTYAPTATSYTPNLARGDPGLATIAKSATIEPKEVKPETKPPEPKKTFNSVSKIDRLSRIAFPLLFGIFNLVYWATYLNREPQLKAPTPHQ
Sequence of 3',5'-cyclic-AMP phosphodiesterase 4D (Q08499 whole entry): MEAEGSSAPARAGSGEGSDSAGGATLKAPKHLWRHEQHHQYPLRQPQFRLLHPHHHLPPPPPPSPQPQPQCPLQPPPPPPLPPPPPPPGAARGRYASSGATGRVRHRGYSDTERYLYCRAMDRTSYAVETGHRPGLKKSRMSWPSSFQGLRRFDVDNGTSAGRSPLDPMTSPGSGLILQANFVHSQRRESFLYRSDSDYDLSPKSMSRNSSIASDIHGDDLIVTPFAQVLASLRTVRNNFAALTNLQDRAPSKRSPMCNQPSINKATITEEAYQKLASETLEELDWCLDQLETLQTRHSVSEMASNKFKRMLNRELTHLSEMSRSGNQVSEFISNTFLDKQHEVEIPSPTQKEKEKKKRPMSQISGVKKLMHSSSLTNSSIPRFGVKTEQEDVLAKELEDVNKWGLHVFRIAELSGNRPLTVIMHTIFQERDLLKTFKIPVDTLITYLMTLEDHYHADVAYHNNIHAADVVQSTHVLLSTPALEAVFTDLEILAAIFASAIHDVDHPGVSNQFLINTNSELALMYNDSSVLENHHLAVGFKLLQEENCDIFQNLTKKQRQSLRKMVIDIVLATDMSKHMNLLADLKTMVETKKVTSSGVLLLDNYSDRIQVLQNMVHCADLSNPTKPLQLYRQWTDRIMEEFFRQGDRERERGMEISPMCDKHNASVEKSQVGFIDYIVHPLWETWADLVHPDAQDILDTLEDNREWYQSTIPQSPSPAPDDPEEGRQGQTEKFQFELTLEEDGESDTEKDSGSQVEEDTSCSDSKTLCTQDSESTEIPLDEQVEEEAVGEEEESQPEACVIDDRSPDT
Sequence of Sodium-dependent serotonin transporter (P31645 whole entry): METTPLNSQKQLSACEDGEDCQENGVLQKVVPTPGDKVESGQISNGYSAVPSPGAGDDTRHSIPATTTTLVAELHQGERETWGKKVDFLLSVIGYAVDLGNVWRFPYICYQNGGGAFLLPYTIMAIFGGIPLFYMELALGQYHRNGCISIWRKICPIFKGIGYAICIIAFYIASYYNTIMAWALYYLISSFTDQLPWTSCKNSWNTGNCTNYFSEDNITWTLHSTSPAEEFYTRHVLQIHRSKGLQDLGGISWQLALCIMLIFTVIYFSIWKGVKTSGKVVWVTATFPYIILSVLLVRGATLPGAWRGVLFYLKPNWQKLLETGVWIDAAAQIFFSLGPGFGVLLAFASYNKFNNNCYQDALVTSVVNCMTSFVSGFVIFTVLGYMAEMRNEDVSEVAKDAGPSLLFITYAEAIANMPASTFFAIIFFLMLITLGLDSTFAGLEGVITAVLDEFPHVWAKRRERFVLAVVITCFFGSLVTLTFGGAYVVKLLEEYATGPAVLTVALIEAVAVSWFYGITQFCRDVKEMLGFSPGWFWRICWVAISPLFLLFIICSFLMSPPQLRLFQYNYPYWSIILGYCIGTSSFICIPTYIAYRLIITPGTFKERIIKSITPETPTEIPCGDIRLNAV
Sequence of Vasopressin V2 receptor (P30518 whole entry): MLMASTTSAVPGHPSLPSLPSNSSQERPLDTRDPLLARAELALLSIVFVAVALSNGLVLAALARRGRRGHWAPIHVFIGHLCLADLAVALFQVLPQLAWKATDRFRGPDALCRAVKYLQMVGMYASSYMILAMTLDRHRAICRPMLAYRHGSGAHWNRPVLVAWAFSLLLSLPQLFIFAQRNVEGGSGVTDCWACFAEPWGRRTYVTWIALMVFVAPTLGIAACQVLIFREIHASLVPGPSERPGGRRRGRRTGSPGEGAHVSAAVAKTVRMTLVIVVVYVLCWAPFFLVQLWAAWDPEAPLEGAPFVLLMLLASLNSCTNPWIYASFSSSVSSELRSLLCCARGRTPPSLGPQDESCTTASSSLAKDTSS

As usually defined, the AC50 is the concentration at which the activity in the assay is half-maximal. Low values mean activity at low concentration, high ones activity only at high concentration. In turn, `Nc1ccc(C(=O)O)cc1` [AMINOBENZOIC ACID] registered a concentration at half-maximal activity (AC50) in assay [1] greater than 30 µM.
`CCCC1C(=O)N2C(N(C)C)=Nc3ccc(C)cc3N2C1=O` (stereo unspecified) [APAZONE] registered an AC50 in assay [1] greater than 30 µM.
Regarding `NS(=O)(=O)c1cc(-c2nnn[nH]2)c(NCc2cccs2)cc1Cl` [AZOSEMIDE], the concentration at half-maximal activity (AC50) (at Vasopressin V1a receptor; on Vasopressin V2 receptor; in assay [2]; in assay [3]; at Cannabinoid receptor 1; in [4]) was greater than 30 µM each time. For the same compound, the AC50 on Histamine H2 receptor is greater than 30 µM; in [5], greater than 30 µM; in [6] it was 7.8 µM; at Progesterone receptor, greater than 30 µM; on Thromboxane A2 receptor, greater than 30 µM; in assay [7] it was greater than 30 µM.
The compound `CCS(=O)(=O)N1CC(CC#N)(n2cc(-c3ncnc4[nH]ccc34)cn2)C1` [BARICITINIB] had an AC50 in assay [1] greater than 30 µM.
`O=C1CN=C(c2ccccc2)c2c(sc3c2CCCC3)N1` [BENTAZEPAM] returned an AC50 in assay [1] greater than 30 µM.
The same measure, in the same setting: next, `O=C(O)CCCN1CCC(O[C@@H](c2ccc(Cl)cc2)c2ccccn2)CC1` [BEPOTASTINE]: greater than 30 µM.
In the case of `C[N+](C)(C)CC(=O)O` [BETAINE], the AC50 (on Vasopressin V1a receptor; on Vasopressin V2 receptor; in assay [2]; in [3]; on Cannabinoid receptor 1; in assay [4]) was greater than 30 µM in each case. The AC50 (at Histamine H2 receptor; in assay [5]; in [6]; at Progesterone receptor; at Thromboxane A2 receptor; in assay [7]) was greater than 30 µM throughout.
On to `CCCCN(CCCC)CCCOC(=O)c1ccc(N)cc1` [BUTACAINE], for which, in [1], the concentration at half-maximal activity (AC50) is greater than 30 µM.
On to `N[C@@H](CSCC(=O)O)C(=O)O` [CARBOCYSTEINE], for which the AC50 (at Vasopressin V1a receptor; on Vasopressin V2 receptor; in assay [2]; in assay [3]; on Cannabinoid receptor 1; in [4]) was greater than 30 µM each time. Besides, the AC50 at Histamine H2 receptor was greater than 30 µM; in [5] it was greater than 30 µM; in assay [6], greater than 10 µM; at Progesterone receptor, greater than 30 µM; on Thromboxane A2 receptor, greater than 30 µM; in assay [7], greater than 30 µM.
In assay [1], `NCc1ccccc1CC(=O)N[C@@H]1C(=O)N2C(C(=O)O)=C(CSc3nnnn3CC(=O)O)CS[C@H]12` [CEFORANIDE] registered a concentration at half-maximal activity (AC50) greater than 30 µM.
Same read-out and setting: next, `O=C(c1ccc(F)c(F)c1Nc1ccc(I)cc1F)N1CC(O)([C@@H]2CCCCN2)C1` [COBIMETINIB]: 17.4 µM; `NS(=O)(=O)c1cc2c(cc1Cl)NC(C1CC3C=CC1C3)NS2(=O)=O` (stereo unspecified) [CYCLOTHIAZIDE]: greater than 30 µM.
Take `NS(=O)(=O)c1cc(Cl)c(Cl)c(S(N)(=O)=O)c1` [DICHLORPHENAMIDE]: the AC50 at Vasopressin V1a receptor is greater than 10 µM; at Vasopressin V2 receptor it was greater than 10 µM; in assay [2], greater than 10 µM; in assay [3], greater than 10 µM; on Cannabinoid receptor 1, greater than 30 µM; in assay [4] it was greater than 10 µM. Besides, the AC50 at Histamine H2 receptor is greater than 10 µM; in assay [5] it was greater than 10 µM; in [6], greater than 30 µM; on Progesterone receptor it was greater than 10 µM; at Thromboxane A2 receptor it was greater than 10 µM; in [7], greater than 10 µM.
In assay [1], `COc1ccc(-c2cc(=O)c3c(O)cc(O[C@@H]4O[C@H](CO[C@@H]5O[C@@H](C)[C@H](O)[C@@H](O)[C@H]5O)[C@@H](O)[C@H](O)[C@H]4O)cc3o2)cc1O` [DIOSMIN] showed an AC50 greater than 30 µM.
On the same count and under the same terms, under `CCOc1ccc(/C=C2\NCCc3cc(OCC)c(OCC)cc32)cc1OCC` [DROTAVERINE] stands greater than 30 µM.
The same measure, in the same setting: next, `CCOC(=O)C(c1c(O)c2ccccc2oc1=O)c1c(O)c2ccccc2oc1=O` [ETHYL BISCOUMACETATE]: greater than 30 µM.
Still for that read-out and setting: next, `Cc1nc(-c2ccc(OCC(C)C)c(C#N)c2)sc1C(=O)O` [FEBUXOSTAT]: greater than 30 µM; `O=C1NCC2(CCN(CCc3ccccc3)CC2)O1` [FENSPIRIDE]: greater than 30 µM.
In the case of `C[C@@H]1C[C@H]2[C@@H]3C[C@H](F)C4=CC(=O)C=C[C@]4(C)[C@@]3(F)[C@@H](O)C[C@]2(C)[C@@]1(O)C(=O)COC(=O)C(C)(C)C` [FLUMETHASONE PIVALATE], in assay [1], the half-maximal activity concentration (AC50) is greater than 30 µM.
Same read-out and setting: under `C[C@@H]1C[C@H]2[C@@H]3C[C@H](F)C4=CC(=O)C(Cl)=C[C@]4(C)[C@@]3(F)[C@@H](O)C[C@]2(C)[C@@]1(O)C(=O)CO` [HALOMETASONE] stands greater than 30 µM.
`CC(C)Cc1ccc(C(C)C(=O)NO)cc1` (stereo unspecified) [IBUPROXAM]: the AC50 in assay [1] was greater than 30 µM.
Still for that read-out and setting: under `CC/C=C\C/C=C\C/C=C\C/C=C\C/C=C\CCCC(=O)O` [ICOSAPENT] stands greater than 30 µM; under `CCC(Cc1c(I)cc(I)c(N)c1I)C(=O)O` (stereo unspecified) [IOPANOIC ACID], greater than 30 µM.
`O=C(NC1CCN(CCCCC2(C(=O)NCC(F)(F)F)c3ccccc3-c3ccccc32)CC1)c1ccccc1-c1ccc(C(F)(F)F)cc1` [LOMITAPIDE]: in assay [1], the half-maximal activity concentration (AC50) was greater than 30 µM.
On the same count and under the same terms, next, `CCN(CC)CCNc1ccc(C)c2sc3ccccc3c(=O)c12` [LUCANTHONE]: greater than 30 µM; `CCOC(=O)CC(SP(=S)(OC)OC)C(=O)OCC` (stereo unspecified) [MALATHION]: greater than 30 µM.
`CCC1(c2cccc(O)c2)CCCCN(C)C1` (stereo unspecified) [MEPTAZINOL] returned a concentration at half-maximal activity (AC50) in assay [1] greater than 30 µM.
The same measure, in the same setting: under `CC(=O)OC(C)C[N+](C)(C)C` (stereo unspecified) [METHACHOLINE] stands 0.0079 µM; under `C1N2CN3CN1CN(C2)C3` [METHENAMINE], greater than 30 µM; under `O=[N+]([O-])c1cncn1CCN1CCOCC1` [NIMORAZOLE], greater than 30 µM.
In the case of `CC(C)NCC1CCc2cc(CO)c([N+](=O)[O-])cc2N1` (stereo unspecified) [OXAMNIQUINE], the AC50 at Vasopressin V1a receptor was greater than 10 µM; at Vasopressin V2 receptor, greater than 10 µM; in [2], greater than 10 µM; in assay [3], greater than 10 µM; on Cannabinoid receptor 1, greater than 30 µM; in [4], greater than 10 µM. The half-maximal activity concentration (AC50) at Histamine H2 receptor was greater than 10 µM; in assay [5] it was greater than 10 µM; in assay [6], greater than 30 µM; at Progesterone receptor, greater than 10 µM; on Thromboxane A2 receptor, greater than 10 µM; in assay [7], 39.6 µM.
